Patent publication US20240158446A1, “CYCLIC COMPOUND HAVING SELECTIVE INHIBITORY ACTION ON KRAS OVER HRAS AND NRAS” (CHUGAI SEIYAKU KABUSHIKI KAISHA, priority 2021, published 2024)

Legend:
[1] = biological target: GDP-bound NRAS wild-type protein (Homo sapiens, UniProt P01111); assay: Binding to NRAS by surface plasmon resonance (SPR), Single Cycle Kinetics; details: for NRAS/KRAS (ratio of KD value for NRAS to KD value for KRAS) / NRAS/KRAS (ratio of KD value with respect to NRAS to KD value with respect to KRAS): SPR, GDP-bound NRAS wild-type protein vs GDP-bound KRAS wild-type protein; for NRAS/KRAS (ratio of KD value with respect to GDP-bound NRAS wild-type protein to KD value with respect to KRAS): SPR KD ratio NRAS/KRAS, class symbols
[2] = biological target: GDP-bound HRAS wild-type protein (Homo sapiens, UniProt P01112); assay: Binding to HRAS by surface plasmon resonance (SPR), Single Cycle Kinetics; details: for HRAS/KRAS (ratio of KD value for HRAS to KD value for KRAS) / HRAS/KRAS (ratio of KD value with respect to HRAS to KD value with respect to KRAS): SPR, GDP-bound HRAS wild-type protein vs GDP-bound KRAS wild-type protein; for HRAS/KRAS (ratio of KD value with respect to GDP-bound HRAS wild-type protein to KD value with respect to KRAS): SPR KD ratio HRAS/KRAS, class symbols
Chain of GDP-bound HRAS wild-type protein (P01112 whole entry): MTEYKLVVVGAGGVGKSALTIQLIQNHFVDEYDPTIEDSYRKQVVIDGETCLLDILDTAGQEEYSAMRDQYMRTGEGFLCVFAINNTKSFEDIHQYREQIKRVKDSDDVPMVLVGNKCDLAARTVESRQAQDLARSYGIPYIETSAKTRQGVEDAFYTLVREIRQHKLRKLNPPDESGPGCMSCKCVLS

Chain of GDP-bound NRAS wild-type protein (P01111 whole entry): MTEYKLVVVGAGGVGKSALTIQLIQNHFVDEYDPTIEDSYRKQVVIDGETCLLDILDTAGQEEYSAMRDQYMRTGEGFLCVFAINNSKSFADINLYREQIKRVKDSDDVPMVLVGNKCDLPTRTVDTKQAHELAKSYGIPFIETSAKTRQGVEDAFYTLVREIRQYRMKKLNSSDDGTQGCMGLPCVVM

| SMILES | NRAS/KRAS (ratio of KD value for NRAS to KD value for KRAS) [1] | HRAS/KRAS (ratio of KD value for HRAS to KD value for KRAS) [2] | other results |
| --- | --- | --- | --- |
| CC[C@H](C)[C@@H]1NC(=O)[C@H](C2CCC2)N(C)C(=O)C[C@@H](C(=O)N(C)CC)N(C)C(=O)[C@H](C2CCCC2)N(C)C(=O)C2(CCC2)NC(=O)[C@@H]2C[C@H](C)CN2C(=O)[C@H](CCc2cc(F)c(C(F)(F)F)c(F)c2)NC(=O)CN(C)C(=O)[C@H](Cc2ccc(C(F)(F)F)cc2)N2CC/C=C\C[C@@H](C2=O)N(C)C(=O)CN(C)C1=O [PP2082] | AA (a compound having 20 or more is denoted as AA) | A (a compound having 10 or more and less than 20 is denoted as A) | – |
| CCO[C@@H]1C[C@H]2C(=O)NC3(CCC3)C(=O)N(C)[C@@H](C3CCCC3)C(=O)N(C)[C@H](C(=O)N(C)C)CC(=O)N(C)[C@@H](CC(C)C)C(=O)N[C@@H]([C@@H](C)CC)C(=O)N(C)CC(=O)N(C)[C@H]3CCCCCN(C3=O)[C@@H](Cc3ccc(F)cc3)C(=O)N(C)CC(=O)N[C@@H](CCc3ccc(C(F)(F)F)c(Cl)c3)C(=O)N2C1 [PP0972] | B (a compound having 3 or more and less than 10 is denoted as B) | B (a compound having 3 or more and less than 10 is denoted as B) | – |
| C=CCCC[C@H]1C(=O)N[C@@H]([C@@H](C)CC)C(=O)N(C)CC(=O)N(C)[C@H]2CCCCCN(C2=O)[C@@H](Cc2ccc(C(F)(F)F)cc2)C(=O)N(C)CC(=O)N[C@@H](CCc2cc(F)c(C(F)(F)F)c(F)c2)C(=O)N2C[C@H](OCC)C[C@H]2C(=O)N[C@](C)(CC=C)C(=O)N(C)[C@@H](C2CCCC2)C(=O)N(C)[C@H](C(=O)N2CCOCC2)CC(=O)N1C [PP0880] | B (a compound having 3 or more and less than 10 is denoted as B) | B (a compound having 3 or more and less than 10 is denoted as B) | – |
| CC[C@H](C)[C@@H]1NC(=O)[C@H](CC(C)C)N(C)C(=O)C[C@@H](C(=O)N2CCOCC2)N(C)C(=O)[C@H](C2CCCC2)N(C)C(=O)C2(CCCC2)NC(=O)[C@@H]2CCCN2C(=O)[C@H](CCc2cc(F)c(C(F)(F)F)c(F)c2)NC(=O)CN(C)C(=O)[C@H](Cc2ccc(C(F)(F)F)cc2)N2CCCC[C@@H](C2=O)N(C)C(=O)[C@H](CC)N(C)C1=O [PP0551] | – | – | NRAS/KRAS (ratio of KD value with respect to NRAS to KD value with respect to KRAS) [1]: C (A compound having a KD ratio of 0.1 or more and less than 3 is denoted as C); HRAS/KRAS (ratio of KD value with respect to HRAS to KD value with respect to KRAS) [2]: B (a compound having 3 or more and less than 10 is denoted as B) |
| CCO[C@@H]1C[C@H]2C(=O)NC3(CCC3)C(=O)N(C)[C@@H](C(CC)CC)C(=O)N(C)[C@H](C)CC(=O)N(C)[C@@H](CC(C)C)C(=O)N[C@@H]([C@@H](C)CC)C(=O)N(C)CC(=O)N(C)[C@H]3C/C=C\CCN(C3=O)[C@@H](Cc3ccc(F)cc3C)C(=O)N(C)CC(=O)N[C@@H](CCc3cc(F)c(C(F)(F)F)c(F)c3)C(=O)N2C1 [PP1524] | – | – | NRAS/KRAS (ratio of KD value for NRAS to KD value for KRAS) ([1]; KD ratio class): B (a compound having 3 or more and less than 10 is denoted as B); HRAS/KRAS (ratio of KD value for HRAS to KD value for KRAS) ([2]; KD ratio class): B (a compound having 3 or more and less than 10 is denoted as B) |
| CCO[C@@H]1C[C@H]2C(=O)NC3(CCC3)C(=O)N(C)[C@@H](C3CCCC3)C(=O)N(CC)[C@H](C(=O)N3CCOCC3)CC(=O)N(C)[C@@H](CCC(Cl)Cl)C(=O)N[C@@H]([C@@H](C)CC)C(=O)N(C)CC(=O)N(C)[C@H]3CCCCCN(C3=O)[C@@H](Cc3ccc(C(F)(F)F)cc3)C(=O)N(C)CC(=O)N[C@@H](CCc3cc(F)c(C(F)(F)F)c(F)c3)C(=O)N2C1 [PP0949] | A (a compound having 10 or more and less than 20 is denoted as A) | A (a compound having 10 or more and less than 20 is denoted as A) | – |
| CCO[C@@H]1C[C@H]2C(=O)NC3(CCCC3)C(=O)N(C)[C@@H](C3CCCC3)C(=O)N(C)[C@H](C(=O)N(C)C)CC(=O)N(C)[C@@H](CC(C)C)C(=O)N[C@@H]([C@@H](C)CC)C(=O)N(C)CC(=O)N(C)[C@H]3C/C=C\CCN(C3=O)[C@@H](Cc3ccc(C(F)(F)F)cc3)C(=O)N(C)CC(=O)N[C@@H](CCc3cc(F)c(C(F)(F)F)c(F)c3)C(=O)N2C1 [PP1105, (2S,8S,12R,14S,20S,23S,27S,30S,36S,38Z)-20-cyclopentyl-8-[2-[3,5-difluoro-4-(trifluoromethyl)phenyl]ethyl]-12-ethoxy-27-isobutyl-N,N,4,19,22,26,32,35-octamethyl-30-[(1S)-1-methylpropyl]-3,6,9,15,18,21,25,28,31,34,42-undecaoxo-2-[[4-(trifluoromethyl)phenyl]methyl]spiro[1,4,7,10,16,19,22,26,29,32,35-undecazatricyclo[34.5.1.0^10,14]dotetracont-38-ene-17,1′-cyclopentane]-23-carboxamide] | A (a compound having 10 or more and less than 20 is denoted as A) | A (a compound having 10 or more and less than 20 is denoted as A) | – |
| CCC[C@H]1C(=O)N[C@@H]([C@@H](C)CC)C(=O)N(C)CC(=O)N(C)[C@H]2C/C=C\CCN(C2=O)[C@@H](Cc2ccc(C)cc2)C(=O)N(C)CC(=O)N[C@@H](CCc2ccc3c(C)cn(C)c3c2)C(=O)N2C[C@H](OCC)C[C@H]2C(=O)NC2(CC(C)(C)C2)C(=O)N(C)[C@@H](C(CC)CC)C(=O)N(C)[C@H](C(=O)N(C)C)CC(=O)N1C [PP2910] | – | – | NRAS/KRAS (ratio of KD value with respect to GDP-bound NRAS wild-type protein to KD value with respect to KRAS) [1]: AA (a compound having 20 or more is denoted as AA); HRAS/KRAS (ratio of KD value with respect to GDP-bound HRAS wild-type protein to KD value with respect to KRAS) [2]: A (a compound having 10 or more and less than 20 is denoted as A) |
| CCC[C@H]1C(=O)N[C@@H]([C@@H](C)CC)C(=O)N(C)CC(=O)N(C)[C@H]2C/C=C\CCN(C2=O)[C@@H](Cc2ccc(C(F)(F)F)cc2)C(=O)N(C)CC(=O)N[C@@H](CCc2cc(F)c(CC)c(OC)c2)C(=O)N2C[C@H](OCC)C[C@H]2C(=O)NC2(CC(C)(C)C2)C(=O)N(C)[C@@H](C2CCCC2)C(=O)N(C)[C@H](C(=O)N(C)C)CC(=O)N1C [PP2862] | – | – | NRAS/KRAS (ratio of KD value with respect to GDP-bound NRAS wild-type protein to KD value with respect to KRAS) [1]: A (a compound having 10 or more and less than 20 is denoted as A); HRAS/KRAS (ratio of KD value with respect to GDP-bound HRAS wild-type protein to KD value with respect to KRAS) [2]: B (a compound having 3 or more and less than 10 is denoted as B) |
| CCC[C@H]1C(=O)N[C@@H]([C@@H](C)CC)C(=O)N(C)CC(=O)N(C)[C@H]2C/C=C\CCN(C2=O)[C@@H](Cc2ccc(C)cc2)C(=O)N(C)CC(=O)N[C@@H](CCc2ccc3sc(C)c(C)c3c2)C(=O)N2C[C@H](OCC)C[C@H]2C(=O)NC2(CC(C)(C)C2)C(=O)N(C)[C@@H](C2CCCC2)C(=O)N(C)[C@H](C(=O)N(C)C)CC(=O)N1C [PP2891] | – | – | NRAS/KRAS (ratio of KD value with respect to GDP-bound NRAS wild-type protein to KD value with respect to KRAS) [1]: A (a compound having 10 or more and less than 20 is denoted as A); HRAS/KRAS (ratio of KD value with respect to GDP-bound HRAS wild-type protein to KD value with respect to KRAS) [2]: B (a compound having 3 or more and less than 10 is denoted as B) |
| CCC[C@H]1C(=O)N[C@@H]([C@@H](C)CC)C(=O)N(C2CC2)CC(=O)N(C)[C@H]2C/C=C\CCN(C2=O)[C@@H](Cc2ccc(C)cc2)C(=O)N(C)CC(=O)N[C@@H](CCc2ccc(C(F)(F)F)c(OC)c2)C(=O)N2C[C@H](OCC)C[C@H]2C(=O)N(C)C2(CCC2)C(=O)N(C)[C@@H](C(CC)CC)C(=O)N(C)[C@H](C(=O)N(C)C)CC(=O)N1C [PP2325] | A (a compound having 10 or more and less than 20 is denoted as A) | A (a compound having 10 or more and less than 20 is denoted as A) | – |
| CC[C@H](C)[C@@H]1NC(=O)[C@H](CC(C)C)N(C)C(=O)C[C@@H](C(=O)N(C)C)N(C)C(=O)[C@H](C2CCCC2)N(C)C(=O)C2(CCCC2)NC(=O)[C@@H]2CCCN2C(=O)[C@H](CCc2ccc(C(F)(F)F)c(Cl)c2)NC(=O)CN(C)C(=O)[C@H](Cc2ccc(C(F)(F)F)cc2)N2CC=CCOC[C@H](C2=O)N(C)C(=O)CN(C)C1=O [PP0628] | – | – | NRAS/KRAS (ratio of KD value with respect to NRAS to KD value with respect to KRAS) [1]: C (A compound having a KD ratio of 0.1 or more and less than 3 is denoted as C); HRAS/KRAS (ratio of KD value with respect to HRAS to KD value with respect to KRAS) [2]: C (A compound having a KD ratio of 0.1 or more and less than 3 is denoted as C) |
| CCO[C@@H]1C[C@H]2C(=O)NC3(CC(C)(C)C3)C(=O)N(C)[C@@H](C3CCCC3)C(=O)N(C)[C@H](C(=O)N(C)C)CC(=O)N(C)[C@@H](CC(C)C)C(=O)N[C@@H]([C@@H](C)CC)C(=O)N(C)CC(=O)N(C)[C@H]3C/C=C\CCN(C3=O)[C@@H](Cc3ccc(C4CC4)cc3)C(=O)N(C)CC(=O)N[C@@H](CCc3ccc(C(F)(F)F)c(OC)c3)C(=O)N2C1 [PP2691, (2S,8S,12R,14S,20S,23S,27S,30S,36S,38Z)-20-cyclopentyl-2-[(4-cyclopropylphenyl)methyl]-12-ethoxy-27-isobutyl-8-[2-[3-methoxy-4-(trifluoromethyl)phenyl]ethyl]-N,N,3′,3′,4,19,22,26,32,35-decamethyl-30-[(1S)-1-methylpropyl]-3,6,9,15,18,21,25,28,31,34,42-undecaoxo-spiro[1,4,7,10,16,19,22,26,29,32,35-undecazatricyclo[34.5.1.0^10,14]dotetracont-38-ene-17,1′-cyclobutane]-23-carboxamide] | – | – | NRAS/KRAS (ratio of KD value with respect to GDP-bound NRAS wild-type protein to KD value with respect to KRAS) [1]: AA (a compound having 20 or more is denoted as AA); HRAS/KRAS (ratio of KD value with respect to GDP-bound HRAS wild-type protein to KD value with respect to KRAS) [2]: A (a compound having 10 or more and less than 20 is denoted as A) |
| CCO[C@@H]1CCN2C(=O)[C@H](CCc3cc(F)c(C(F)(F)F)c(F)c3)NC(=O)CN(C)C(=O)[C@H](Cc3ccc(C(F)(F)F)cc3)N3CCCCC[C@@H](C3=O)N(C)C(=O)CN(C)C(=O)[C@H]([C@@H](C)CC)NC(=O)[C@H](CC(C)C)N(C)C(=O)C[C@@H](C(=O)N3CCOCC3)N(C)C(=O)[C@H](C3CCCC3)N(C)C(=O)C3(CCC3)NC(=O)[C@H]12 [PP1082] | A (a compound having 10 or more and less than 20 is denoted as A) | B (a compound having 3 or more and less than 10 is denoted as B) | – |
